Results reported in patent publication US9580463B2 (BRISTOL-MYERS SQUIBB COMPANY, priority 2013, dated 2017).
Like-named read-outs stand apart in the source and are kept apart here.

Key:
[1] = tested on: HCV genotype 1a (H77 strain) replicon in HUH-7 cells; test: HCV replicon luciferase reporter assay, genotype 1a; format: cell-based; settings: Hepatitis C virus, 72 h, genotype 1a replicon, 3 days incubation
Source text: An HCV replicon whole cell system was established as described by Lohmann V, Korner F, Koch J, Herian U, Theilmann L, Bartenschlager R., Science 285(5424):110-3 (1999) and modified to introduce a luciferase reporter, as first described by Krieger et al (Krieger N, Lohmann V, and Bartenschlager R, J. Virol. 75(10):4614-4624 (2001)). CDNA encoding a humanized form of the Renilla luciferase gene and a linker sequence fused directly to the 3′-end of the luciferase gene were introduced into the replicon construct using an Asc1 restriction site located in core, directly upstream of the neomycin marker gene. The adaptive mutation at position 1179 (serine to isoleucine) was also introduced (Blight K J, Kolykhalov, A A, Rice, C M, Science 290(5498):1972-1974). A stable cell line constitutively expressing this HCV replicon construct was generated by first linearizing plasmid DNAs with ScaI. RNA transcripts were synthesized in vitro using the T7 MegaScript transcription kit (Ambion, Austin, Tex.) according to manufacturer's directions. In vitro transcripts of the cDNA were transfected into the human hepatoma cell line, HUH-7. […] Resulting cell lines were characterized for positive and negative strand RNA production and protein production over time.
A stable HCV replicon luciferase reporter cell line representing the genotype 1a H77 strain (Yanagi M, Purcell R H, Emerson S U, et al. Transcripts from a single full-length cDNA clone of hepatitis C virus are infectious when directly transfected into the liver of a chimpanzee. Proc Natl Acad Sci USA 1997; 94(16):8738-8743) was generated as described previously for the genotype 1b (Con1) replicon luciferase cell line. The replicon construct was modified by introducing mutations were introduced into the genes encoding the NS3 helicase domain (proline replaced by leucine at position 1496) and NS5A (serine to isoleucine at position 2204) to improve replication in cell culture.
HCV replicon luciferase assays were developed to monitor the inhibitory effects of compounds described in the disclosure on HCV genotypes 1a and 1b viral replication. HUH-7 cells, constitutively expressing the HCV replicon, were grown in Dulbecco's Modified Eagle Media (DMEM) (Gibco-BRL) containing 10% Fetal calf serum (FCS) (Sigma) and 1 mg/mL G418 (Gibco-BRL). Compounds were serially diluted 3 folds in DMSO for a twenty-point titration and subsequently transferred to sterile 384-well tissue-culture treated plates (Corning cat #3571). The plates were then seeded with 50 μL of cells at a density of 3.0×10^3 cells/well in DMEM containing 4% FCS (final DMSO concentration at 0.5%). After 3 days incubation at 37° C., cells were analyzed for Renilla Luciferase activity using the EnduRen as substrate (Promega cat #E6485). The EnduRen substrate was diluted in DMEM and then added to the plates to a final concentration of 7.5 μM. The plates were incubated for 2 hrs at 37° C. and then read immediately for 30 seconds with Viewlux Imager (PerkinElmer) using a luminescence program. To assess cytotoxicity of compounds, CC50 values were generated by multiplexing the EnduRen-containing plates with Cell Titer-Blue (Promega, cat # G8082). Cell-Titer Blue (3 μL) was added to each well and incubated for 8 hrs at 37° C. The fluorescence signal from each well was read, with an excitation wavelength at 525/10 nm and an emission wavelength of 598/10 nm, using the Viewlux Imager.
The EC50 values for compounds were calculated by using a four-parameter logistic equation: y=A+((B−A)/(1+((C/x)^D))), where A and B denotes minimal and maximal % inhibition, respectively, C is the EC50, D is the hill slope and x represents compound concentration.

[2] = tested on: HCV genotype 1b (Con1) replicon in HUH-7 cells; test: HCV replicon luciferase reporter assay, genotype 1b; format: cell-based; settings: Hepatitis C virus, 72 h, genotype 1b replicon, 3 days incubation
Summary of the method: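 Twenty-point, threefold compound titrations (0.5% DMSO) were incubated 3 days at 37 °C with 3.0×10^3 HUH-7 cells/well in 4% FCS. The cells stably carried luciferase replicons: genotype 1b Con1 (S1179I) or 1a H77 (NS3 P1496L, NS5A S2204I). Renilla signal was read after 2 h with 7.5 μM EnduRen, and EC50 was taken from a four-parameter logistic fit. Cytotoxicity (CC50) was measured by Cell Titer-Blue, 8 h.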

| Compound | EC50 ([1]; read-out: LE_1a (EC50, range)) [nM] | EC50 ([2]; read-out: LE_1b (EC50, range)) [nM] | EC50 ([1]; read-out: LE_1a (EC50)) [nM] | EC50 ([2]; read-out: LE_1b (EC50)) [nM] |
| --- | --- | --- | --- | --- |
| COC[C@@H]1C[C@H](C)CC/C=C\[C@@H]2C[C@@]2(C(=O)NS(=O)(=O)C2CC2)NC(=O)[C@@H]2C[C@@H](Oc3nccc4cc(OC)ccc34)CN2C(=O)[C@H]1NC(=O)OC(C)(C)C(F)(F)F [Compound 1019, 1,1,1-trifluoro-2-methylpropan-2-yl ((2R,6S,7R,9R,13aS,14aR,16aS,Z)-14a-((cyclopropylsulfonyl)carbamoyl)-2-((6-methoxyisoquinolin-1-yl)oxy)-7-(methoxymethyl)-9-methyl-5,16-dioxo-1,2,3,5,6,7,8,9,10,11,13a,14,14a,15,16,16a-hexadecahydrocyclopropa[e]pyrrolo[1,2-a][1,4]diazacyclopentadecin-6-yl)carbamate] | 1.01 to 5 | 0.51 to 1 | – | – |
| COC[C@@H]1C[C@H](C)CC/C=C\[C@@H]2C[C@@]2(C(=O)NS(=O)(=O)C2CC2)NC(=O)[C@@H]2C[C@@H](Oc3nccc4cc(OC)ccc34)CN2C(=O)[C@H]1NC(=O)OC(C)(C)C [Compound 1009, tert-butyl ((2R,6S,7R,9R,13aS,14aR,16aS,Z)-14a-((cyclopropylsulfonyl)carbamoyl)-2-((6-methoxyisoquinolin-1-yl)oxy)-7-(methoxymethyl)-9-methyl-5,16-dioxo-1,2,3,5,6,7,8,9,10,11,13a,14,14a,15,16,16a-hexadecahydrocyclopropa[e]pyrrolo[1,2-a][1,4]diazacyclopentadecin-6-yl)carbamate] | 1.01 to 5 | 1.01 to 5 | – | – |
| COC[C@@H]1CCCC/C=C\[C@@H]2C[C@@]2(C(=O)NS(=O)(=O)C2CC2)NC(=O)[C@@H]2C[C@@H](Oc3nc4cc(OC)ccc4nc3C(F)(F)F)CN2C(=O)[C@H]1NC(=O)OC(C)(C)C [Compound 1020, tert-butyl ((2R,6S,7R,13aS,14aR,16aS,Z)-14a-((cyclopropylsulfonyl)carbamoyl)-2-((7-methoxy-3-(trifluoromethyl)quinoxalin-2-yl)oxy)-7-(methoxymethyl)-5,16-dioxo-1,2,3,5,6,7,8,9,10,11,13a,14,14a,15,16,16a-hexadecahydrocyclopropa[e]pyrrolo[1,2-a][1,4]diazacyclopentadecin-6-yl)carbamate] | 1.01 to 5 | 0.51 to 1 | – | – |
| COC[C@@H]1C[C@@H](C)CC/C=C\[C@@H]2C[C@@]2(C(=O)NS(=O)(=O)C2CC2)NC(=O)[C@@H]2C[C@@H](Oc3nccc4cc(OC)ccc34)CN2C(=O)[C@H]1NC(=O)OC(C)(C)C [Compound 1008, tert-butyl ((2R,6S,7R,9S,13aS,14aR,16aS,Z)-14a-((cyclopropylsulfonyl)carbamoyl)-2-((6-methoxyisoquinolin-1-yl)oxy)-7-(methoxymethyl)-9-methyl-5,16-dioxo-1,2,3,5,6,7,8,9,10,11,13a,14,14a,15,16,16a-hexadecahydrocyclopropa[e]pyrrolo[1,2-a][1,4]diazacyclopentadecin-6-yl)carbamate] | 1.01 to 5 | 1.01 to 5 | – | – |
| COC[C@@H]1C[C@@H](C)CC/C=C\[C@@H]2C[C@@]2(C(=O)NS(=O)(=O)C2(CF)CC2)NC(=O)[C@@H]2C[C@@H](Oc3nc4cc(OC)ccc4nc3C(F)(F)F)CN2C(=O)[C@H]1NC(=O)OC(C)(C)C(F)(F)F [Compound 1038, 1,1,1-trifluoro-2-methylpropan-2-yl ((2R,6S,7R,9S,13aS,14aR,16aS,Z)-14a-(((1-(fluoromethyl)cyclopropyl)sulfonyl)carbamoyl)-2-((7-methoxy-3-(trifluoromethyl)quinoxalin-2-yl)oxy)-7-(methoxymethyl)-9-methyl-5,16-dioxo-1,2,3,5,6,7,8,9,10,11,13a,14,14a,15,16,16a-hexadecahydrocyclopropa[e]pyrrolo[1,2-a][1,4]diazacyclopentadecin-6-yl)carbamate] | 35 to 620 | 5.01 to 35 | 35 | 14.7 |
| COC[C@@H]1C[C@H](C)CC/C=C\[C@@H]2C[C@@]2(C(=O)NS(=O)(=O)C2CC2)NC(=O)[C@@H]2C[C@@H](Oc3ncc(OC)c4ccccc34)CN2C(=O)[C@H]1NC(=O)OC(C)(C)C(F)(F)F [Compound 1012, 1,1,1-trifluoro-2-methylpropan-2-yl ((2R,6S,7R,9R,13aS,14aR,16aS,Z)-14a-((cyclopropylsulfonyl)carbamoyl)-2-((4-methoxyisoquinolin-1-yl)oxy)-7-(methoxymethyl)-9-methyl-5,16-dioxo-1,2,3,5,6,7,8,9,10,11,13a,14,14a,15,16,16a-hexadecahydrocyclopropa[e]pyrrolo[1,2-a][1,4]diazacyclopentadecin-6-yl)carbamate] | 0.51 to 1 | 0.1 to 0.5 | – | – |
| COC[C@@H]1C[C@@H](C)CC/C=C\[C@@H]2C[C@@]2(C(=O)NS(=O)(=O)C2CC2)NC(=O)[C@@H]2C[C@@H](Oc3ncc(OC)c4ccccc34)CN2C(=O)[C@H]1NC(=O)OC(C)(C)C(F)(F)F [Compound 1013, 1,1,1-trifluoro-2-methylpropan-2-yl ((2R,6S,7R,9S,13aS,14aR,16aS,Z)-14a-((cyclopropylsulfonyl)carbamoyl)-2-((4-methoxyisoquinolin-1-yl)oxy)-7-(methoxymethyl)-9-methyl-5,16-dioxo-1,2,3,5,6,7,8,9,10,11,13a,14,14a,15,16,16a-hexadecahydrocyclopropa[e]pyrrolo[1,2-a][1,4]diazacyclopentadecin-6-yl)carbamate] | 1.01 to 5 | 1.01 to 5 | – | – |
| COC[C@@H]1C[C@H](C)CC/C=C\[C@@H]2C[C@@]2(C(=O)NS(=O)(=O)C2(CF)CC2)NC(=O)[C@@H]2C[C@@H](Oc3nc4cc(OC)ccc4nc3C(F)(F)F)CN2C(=O)[C@H]1NC(=O)OC(C)(C)C(F)(F)F [Compound 1037, 1,1,1-trifluoro-2-methylpropan-2-yl ((2R,6S,7R,9R,13aS,14aR,16aS,Z)-14a-(((1-(fluoromethyl)cyclopropyl)sulfonyl)carbamoyl)-2-((7-methoxy-3-(trifluoromethyl)quinoxalin-2-yl)oxy)-7-(methoxymethyl)-9-methyl-5,16-dioxo-1,2,3,5,6,7,8,9,10,11,13a,14,14a,15,16,16a-hexadecahydrocyclopropa[e]pyrrolo[1,2-a][1,4]diazacyclopentadecin-6-yl)carbamate] | 1.01 to 5 | 1.01 to 5 | – | – |
| COC[C@@H]1CCCC/C=C\[C@@H]2C[C@@]2(C(=O)NS(=O)(=O)C2(C)CC2)NC(=O)[C@@H]2C[C@@H](Oc3ncc(OC)c4ccccc34)CN2C(=O)[C@H]1NC(=O)OC(C)(C)C(F)(F)F [Compound 1002, 1,1,1-trifluoro-2-methylpropan-2-yl ((2R,6S,7R,13aS,14aR,16aS,Z)-2-((4-methoxyisoquinolin-1-yl)oxy)-7-(methoxymethyl)-14a-(((1-methylcyclopropyl)sulfonyl)carbamoyl)-5,16-dioxo-1,2,3,5,6,7,8,9,10,11,13a,14,14a,15,16,16a-hexadecahydrocyclopropa[e]pyrrolo[1,2-a][1,4]diazacyclopentadecin-6-yl)carbamate] | 0.51 to 1 | 0.1 to 0.5 | – | – |
